According to patent publication US20120015901A1, “METHODS AND PREPARATIONS FOR PROTECTING CRITICALLY ILL PATIENTS” (priority 2009, published 2012):
Entries after “also recorded” stand apart in the source; their conditions may differ.

What was measured:
[1] = system: wild type yeast (BY4741) and null mutants; assay: Yeast chronological aging, survival plating (clonogenicity); assay type: cell-based; settings: for Pro-survival effect of spermidine application (compared to WT): 4 mM; for increase of survival: day 20, 4 mM spermidine
Procedure: Experiments were carried out in BY4741 (MATa his3Δ1 leu2Δ0 met15Δ0 ura3Δ0) and respective null mutants, obtained from Euroscarf. The double mutant Δiki3Δsas3 was generated according to Gueldener at al. (2002) Nucleic Acids Res. 30, e23 by using gene-specific URA3-knockout cassette, amplified by PCR with pUG72 as template (Lovaas & Carlin (1991) Free Radic Biol Med 11, 455-46.). […] All spe1 double mutant strains were obtained through mating and sporulation of BY4741 Δspe1 with the respective BY4742 ([…]) single mutant strains. Single and double mutant strains were verified for correct gene deletion by PCR and further checked for consistent auxotrophies. […] Strains were grown at 28° C. on SC medium containing 0.17% yeast nitrogen base (Difco), 0.5% (NH4)2SO4 and 30 mg/l of all amino acids (except 80 mg/l histidine and 200 mg/l leucine), 30 mg/l adenine, and 320 mg/l uracil with 2% glucose (SCD). […] To construct NHP6A-EGFP in pUG35-Ura (giving rise to a C-terminally tagged chimeric fusion protein under control of the met25-Promotor) the insert was amplified by PCR using genomic DNA from BY4741 as template and cloned into pUG35 using the EcoRI restriction site. The EGFP-ATG8 construct in pUG36-Ura (N-terminally tagged fusion protein) was similarly generated, using EcoRI and ClaI restriction sites.
In case of experiments with Δspe1 (FIG. 24 A-E), all strains were inoculated to 5·10^4 cells/ml. […] Therefore, for calculation of survival rates in experiments using Δiki3Δsas3, cell numbers of each sample were determined after two pulse of sonication on ice with Sonifier 250 from Benson (Duty Cycle: 35; Output Control: 2.5). Tests for apoptotic (TUNEL and Annexin V staining) and necrotic (PI staining) markers as well as markers for oxidative stress (DHE staining) were performed as described in Dod et al. (1982) Eur J Biochem 121, 401-405). For quantifications using flow cytometry (BD FACSAria), 30,000 cells were evaluated and analyzed with BD FACSDiva software. Spermidine (S4139, Sigma, Austria) and putrescine (P5780, Sigma, Austria; 1 mM final concentration) were added to stationary cultures at day 1 of the aging experiments (24 h after inoculation). 1 M aqueous stock solution of spermidine was stored in one use aliquots at −20° C. for no longer than 1 month. For adjustment of extracellular pH (pHex) to 6 (±0.5), the required amount of sodium hydroxide was added 30 h after inoculation. The pHex was maintained at approximately 6 (±0.5) throughout the aging.

[2] = system: general HAT activity in extracts of mammalian nuclei; assay: HAT activity assay, nuclear extract of HeLa-cells; assay type: biochemical; settings: extracts of mammalian nuclei (data not shown); spermidine 100 mM
Procedure: For HAT-activity determination the commercially available HAT Activity Colorimetric Assay KIT from BioVision (Bio Vision K332-100) was employed. HAT assays were performed according to the manufacturer's protocol. In brief, assays were performed with each 15 μg of yeast nuclear extract or nuclear extract of HeLa-cells (Bio Vision K332-100-4), respectively. Spermidine was added at a final concentration of 100 mM 15 minutes after assay initiation. Development of tetrazolium dye was measured by absorption at 440 nm using a GeniosPro plate reader (Tecan). Background readings were done with samples without NADH generating enzyme, giving the nuclear extracts unspecific background activity and eliminate any possible negative effects of spermidine addition on the assay itself. […] Regression coefficients of R^2>0.99 were obtained. Calculated slopes of spermidine treated samples were compared to slopes of untreated samples which were set to a relative activity of 100%.

[3] = system: critically ill rabbits; assay: Proof-of-concept outcome study, interim analysis (15 animals per group)
Procedure: Based on the pilot study, two doses of spermidine (30 and 100 mg/day) were selected to continue with.
An a priori planned interim analysis was performed after having included 15 animals per group, for selecting 1 spermidine-group to be completed next to the saline-group until 58 animals per group are included. After the interim analysis, the codes of the vials were changed, so that the proceeding of the study was again carried out blinded.
Based on the pilot study, two doses of spermidine are selected (30 and 100 mg/day) to continue with.
An interim analysis was performed after having included 15 animals per group, for selecting 1 spermidine-group that will be completed next to the saline-group until 58 animals per group are included. After the interim analysis, the codes of the vials are changed, so that the proceeding of the study is again carried out blinded.

NCCCCNCCCN [spermidine]
chronological life span of polyamine depleted cells [1]: restored
Pro-survival effect of spermidine application (compared to WT) ([1]; deletions image P00002, HDA2, increased in early aging (fast death of controls), BUT diminished or absent day 15 to 25): increased during
Pro-survival effect of spermidine application (compared to WT) ([1]; single deletion of HDA1): not affected
Pro-survival effect of spermidine application (compared to WT) ([1]; single deletions image P00004, RXT2, SDS3, SAP30): not affected
Pro-survival effect of spermidine application (compared to WT) ([1]; single deletions image P00005, HDA3, HOS1, HOS2, HOS3, HOS4, RPD3, PHO23, SIR2, HST1, HST2, SET3, SIF2): not affected
Pro-survival effect of spermidine application (compared to WT) ([1]; single deletions shown as image P00001, survival increased during early aging): reduced
Pro-survival effect of spermidine application (compared to WT) ([1]; single deletions shown as image P00003, during early aging (day 5 to 15)): slightly reduced
increase in yeast life span ([1]; BY4741 wild type, spermidine supplied at day 1 (4 mM)): up to 4 times
ability of spermidine to extend the chronological life span ([1]; deletion of SIR2): did not abrogate
longevity upon spermidine application ([1]; single deletion of HST1, HST2, HST3, HST4): did not affect longevity
increase of survival ([1]; wild type cells): 5 fold
anti-aging (pro-survival) effect of spermidine ([1]; Δiki3 and Δsas3 strains): partially abrogated
increase of survival ([1]; Δiki3Δsas3 cells): 1.3 fold
ROS accumulation and survival during aging ([1]; Δsod2 mutant cells, 4 mM spermidine): temporarily protects from excessive ROS accumulation and loss of survival
general HAT activity [2]: efficiently inhibited
mortality ([3]; 7 days after injury, 30 and 100 mg/day, both doses equal, placebo >50%): about one third; also recorded: much lower
rise in renal p62 levels (autophagic flux marker) ([3]; kidney, compared to saline-treated animals): attenuated
plasma spermidine concentration ([3]; spermidine 30 mg/d or 100 mg/d): maintain or increase the plasma spermidine concentration to similar (supra)physiological levels
number of animals that developed a more than 3-fold rise in normal urea levels ([3]; spermidine-treated animals, saline 18.8%, P 0.0461): 2.8%
number of animals that developed a more than 3-fold rise in normal creatinine levels ([3]; spermidine-treated animals, saline 25%, P 0.0161): 2.8%
